According to US8137977B2, “Lipidomic approaches to determining drug response phenotypes in cardiovascular disease” (Children's Hospital & Research Center at Oakland, priority 2007, dated 2012):

Assay: Lipid profile changes (lipid classes and fatty acid composition) following simvastatin treatment, high vs low responders, PARC study
Assay type: in vivo, human
Settings: 40 mg, 6 weeks vs baseline, high minus low, ANOVA
Protocol: We evaluated lipid profiles of 48 subjects selected from the Pharmacogenetics and Risk of Cardiovascular Disease (PARC) study. Subjects were selected from the larger study population of 944 participants (335 African-Americans and 609 whites), with a baseline total serum cholesterol level of 160 to 400 mg/dl. Participants were followed for a total of 6 weeks on simvastatin therapy (40 mg at bedtime). Twenty-four subjects drawn from the top 10% of responders and 24 age-, gender-, and race-matched subjects from the bottom 10% of responders. Response was defined as percent change in LDL cholesterol from baseline to end of treatment. Samples used in this study were collected at baseline and at 6 weeks of therapy.
Data Reporting. Lipids measured included, butyrobetaine, L-carnitine, cholesterol, cholesterol esters (CE), diglycerides (DG), free cholesterol (FC), free fatty acids (FA), lysophosphatidylcholine (LY), phosphatidylcholine (PC), phosphatidylethanolamine (PE) and triglycerides (TG). For CE, DG, FA, LY, PC, PE and TG lipid classes the following fatty acid components were quantified as a proportion of total fatty acids within the lipid class: 14:0, 15:0, 16:0, 18:0, 20:0, 22:0, 24:0, 14:1n5, 16:1n7, 18:1n7, 18:1n9, 20:1n9, 20:3n9, 22:1n9, 24:1n9, 18:2n6, 18:3n6, 20:2n6, 20:3n6, 20:4n6, 22:2n6, 22:4n6, 22:5n6, 18:3n3, 18:4n3, 20:3n3, 20:4n3, 20:5n3, 22:5n3, 22:6n3, 24:6n3, plasmalogen derivatives of 16:0, 18:0, 18:1n7 and 18:1n9, t16:1n7 t18:1n9 t18:2n6. The term “LC” indicates the value shown is the total concentration of the lipid class expressed as nMoles per gram of serum or plasma. Thus, the abbreviation PC18:2n6 indicates the percentage of plasma or serum phosphatidylcholine comprised of linoleic acid (18:2n6), and the term TGLC indicates the absolute amount of triglyceride present in plasma or serum.
Statistical Methods. Before undertaking analysis, the data was cleaned by outlier removal and removal of uninformative metabolites. Outliers were identifies as those observation more than three standard deviations from the mean. Metabolites were determined to be uninformative if over ⅔rds of the observations were below the limit of detection and the pattern of observations falling below this limit was not related to the outcome.
Results of t-tests were used in order to reduce the number of metabolites being modeled.
A simple one-way ANOVA was used to evaluate the difference in lipid changes between high and low responders. From this analysis, contrasts were calculated for the comparison of low to high responders. In addition, an ANCOVA model was used to evaluate the difference in response adjusting for baseline concentrations of the metabolite and the time the samples were run. The outcome was change from baseline to post-treatment, baseline concentration was the covariate, response (high=1, low=0) and group (first=0, second=1) were included as factors, and an interaction term between baseline and response was included.
The column labeled “estimate” is the difference between the change from pre to post in high and low responders (high minus low). The standard error, t-statistic, p-value, and 95% confidence bounds of this estimate are also included (Lower.CI and Upper.CI).

[1] = proportion of fatty acids in lysophosphatidylcholine
[2] = proportion of fatty acids in phosphatidylcholine
[3] = proportion of fatty acids in phosphatidylethanolamine
[4] = proportion of fatty acids in triglyceride

CCC(C)(C)C(=O)O[C@H]1C[C@@H](C)C=C2C=C[C@H](C)[C@H](CC[C@@H]3C[C@@H](O)CC(=O)O3)[C@H]21 [simvastatin]
Estimate, difference between change in high and low responders: DGLC (total diglyceride): 2.4502 nMoles per gram of serum or plasma
Estimate, difference between change in high and low responders: LY14.1n5 [1]: 0.0135 percentage
Estimate, difference between change in high and low responders: LY16.0 [1]: −1.1505 percentage
Estimate, difference between change in high and low responders: LY18.0 [1]: −1.1443 percentage
Estimate, difference between change in high and low responders: LY18.1n9 [1]: 0.3099 percentage
Estimate, difference between change in high and low responders: LY18.3n6 [1]: 0.0774 percentage
Estimate, difference between change in high and low responders: LY20.4n3 [1]: −0.019 percentage
Estimate, difference between change in high and low responders: LY20.4n6 [1]: 0.1269 percentage
Estimate, difference between change in high and low responders: LY20.5n3 [1]: 0.0994 percentage
Estimate, difference between change in high and low responders: PC18.2n6 [2]: −1.5254 percentage
Estimate, difference between change in high and low responders: PC18.3n3 [2]: −0.0498 percentage
Estimate, difference between change in high and low responders: PC20.3n9 [2]: −0.0509 percentage
Estimate, difference between change in high and low responders: PC20.4n6 [2]: 1.1779 percentage
Estimate, difference between change in high and low responders: PC22.6n3 [2]: 0.4153 percentage
Estimate, difference between change in high and low responders: PE14.1n5 [3]: 0.0551 percentage
Estimate, difference between change in high and low responders: PE18.0 [3]: −2.0267 percentage
Estimate, difference between change in high and low responders: PE18.2n6 [3]: −1.036 percentage
Estimate, difference between change in high and low responders: PE20.0 [3]: 0.0189 percentage
Estimate, difference between change in high and low responders: PE20.3n6 [3]: −0.4196 percentage
Estimate, difference between change in high and low responders: PE20.4n3 [3]: −0.0102 percentage
Estimate, difference between change in high and low responders: PE22.5n3 [3]: −0.1266 percentage
Estimate, difference between change in high and low responders: TG18.3n3 [4]: −0.0787 percentage
Estimate, difference between change in high and low responders: TG18.3n6 [4]: 0.1008 percentage
Estimate, difference between change in high and low responders: TG18.4n3 [4]: 0.0378 percentage
Estimate, difference between change in high and low responders: TG20.3n9 [4]: −0.0052 percentage
Estimate, difference between change in high and low responders: TG20.4n3 [4]: −0.0056 percentage
Estimate, difference between change in high and low responders: TG20.4n6 [4]: 0.1005 percentage
Estimate, difference between change in high and low responders: TG22.0 [4]: 0.0184 percentage
Estimate, difference between change in high and low responders: TG22.4n6 [4]: −0.0138 percentage
Estimate, difference between change in high and low responders: TG22.5n6 [4]: −0.0165 percentage
Estimate, difference between change in high and low responders: FA20.0 (proportion of free fatty acids): 0.0159 percentage
Estimate, difference between change in high and low responders: FA20.1n9 (proportion of free fatty acids): 0.0823 percentage
Estimate, difference between change in high and low responders: FA22.1n9 (proportion of free fatty acids): −0.0615 percentage
Estimate, difference between change in high and low responders: FA22.2n6 (proportion of free fatty acids): −0.0088 percentage
